“Also recorded” adds a separate entry of the source.
Biological target: T1, adult human liver flavin-containing monooxygenase (form 3) (Homo sapiens, UniProt P31513, E158K)
T1 sequence (P31513 1-532 E158K): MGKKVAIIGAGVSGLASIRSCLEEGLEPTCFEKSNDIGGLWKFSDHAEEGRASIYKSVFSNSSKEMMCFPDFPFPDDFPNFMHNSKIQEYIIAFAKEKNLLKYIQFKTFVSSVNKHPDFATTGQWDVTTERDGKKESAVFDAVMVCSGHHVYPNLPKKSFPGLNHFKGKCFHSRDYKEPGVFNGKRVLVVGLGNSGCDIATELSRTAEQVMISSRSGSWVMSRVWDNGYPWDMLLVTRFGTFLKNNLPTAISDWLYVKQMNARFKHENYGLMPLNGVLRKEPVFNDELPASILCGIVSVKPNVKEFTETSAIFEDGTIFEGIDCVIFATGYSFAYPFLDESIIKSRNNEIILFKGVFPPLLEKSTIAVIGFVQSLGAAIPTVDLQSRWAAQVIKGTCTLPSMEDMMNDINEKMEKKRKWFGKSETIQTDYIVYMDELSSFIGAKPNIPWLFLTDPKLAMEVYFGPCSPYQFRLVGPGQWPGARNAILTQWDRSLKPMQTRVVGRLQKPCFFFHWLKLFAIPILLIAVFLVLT
Test: N- and S-oxygenation by cDNA-expressed HLFMO 3 (solubilized protein from E. coli transformed with pTrcHLFMO 3), HPLC
Method: In all cases examined, product formation was directly determined by HPLC analysis of organic extracts.
Competent NM522 Escherichia coli cells were transformed with the pTrc HLFMO 3 plasmid. […] After inoculation with a fresh overnight culture of NM522 containing pTrcHLFMO 3, the culture was grown at 37° C. until Abs600 was approximately 0.5 absorbance units. Finally, IPTG (0.8 mM) was added to the culture to induce expression of protein and the culture was left to grow overnight at 37° C.
The bacterial pellet was resuspended in 5 volumes of 50 mM potassium phosphate buffer (pH 8.4) containing 1% Triton X-100, 0.1% L-, α-phosphatidylcholine (L-α-lecithin) from egg yolk, 500 μM PMSF, and 1 mM EDTA. The mixture was sonicated and then centrifuged to remove cellular debris. As a control, bacterial lysate extracts from IPTG-induced pTrc99A-transformed NM522 cells (i.e., pTrc99A without the HLFMO 3 cDNA insert) were prepared under the same conditions.
Human liver samples were obtained from the Department of Surgery (UCSF) and with a protocol from the Medical College of Wisconsin (S. Wrighton).
A typical incubation mixture (final volume 0.25 ml) contained hepatic microsomes (0.4 mg of protein) or bacterial lysate (2.3 mg of protein), NADP^+ (0.5 mM), glucose-6-phosphate (2.0 mM), glucose-6-phosphate dehydrogenase (1 IU), DETAPAC (0.8 mM) and potassium phosphate buffer (50 mM, pH 8.4). Reactions were initiated by the addition of substrate and terminated at designated times by the addition of three volumes of cold dichloromethane, mixed thoroughly and centrifuged to separate the aqueous and organic fractions. N- and S-oxide metabolic products in the resulting organic extracts were separated and quantified by HPLC. […] Thiobenzamide and thiobenzamide S-oxide were quantified with this same, HPLC system employing a mobile phase of methanol/acetonitrile/60% perchloric acid (20:80:0.016, v/v) which gave retention volumes of 2.7 and 7.0 ml, respectively. […] The major metabolites formed in the incubations were also subjected to mass spectral analysis after extraction of isolated HPLC fractions.
RPLC of the S-oxide diastereomers with a Chiracel OT chiral analytical column (25 cm×0.15 cm inner diameter, Daicel Chemical Co., New York, N.Y.) was accomplished with a Beckman system, Kratos UV detector (240 nm) and a Hewlett Packard Integrator. […] Quantification was accomplished by comparing integrated HPLC peak areas after taking into account the difference in the extinction coefficients at 240 nm. Likewise, the cis and trans S-oxide diasteromers of (+)- and (−)-2-methyl-1,-benzodithiole were separated with a Chiracel OT chiral analytical column.

## CN(C)CCCCCN1c2ccccc2Sc2ccc(C(F)(F)F)cc21 [Compound 5]
0.1 mM substrate, mean of 5 determinations ± SD
  N-oxide formation, Expressed HFLMO: 200.0 ± 45.7 pmol/min/mg of protein
100,000×g pellet
  N-oxygenase activity in the pellet: 0.043 nmol/min/mg of protein
  share of N-oxygenase activity in the pellet: 16%
100,000×g supernatant
  share of N-oxygenase activity in the supernatant fraction: 84%
100,000×g supernatant of solubilized recombinant HLFMO 3 protein
  N-oxygenase activity in the supernatant fraction: 0.23 nmol/min/mg of protein
N- or S-oxide formation, for the 4-bromophenyl-1,3-oxathiolanes formation of the trans S-oxide
  Vmax, Expressed HLFMO: 0.023 nmol/min/mg of protein
Human liver microsomes and solubilized protein from E. coli transformed with pTrcHLFMO 3
  substrate activity for human liver microsomes and expressed HLFMO 3, in words: better substrates; also recorded: excellent substrates
read-out: Km, Expressed HLFMO, N- or S-oxide formation, for the 4-bromophenyl-1,3-oxathiolanes formation of the trans S-oxide
  Km: 64.6 µM
